Patent US4801613A, “Bradykinin antagonist peptides” (Nova Technology Limited Partnership, priority 1987, dated 1989)
Where two headings read alike, the source gives them in different places. Values belong to the compound of their own block, whether it stands above or below them. Non-standard residues stand in square brackets, D forms with d. Residues, ends and D or L forms follow the SMILES beside them. No end group written: not given here. 2Thi = N[C@@H](Cc1cccs1)C(=O)O

Legend:
kininases [1] = settings: rat, in vivo
kininases [2] = settings: anesthetized rat; single pass in the pulmonary circulation
kininases [3] = settings: anesthetized rat; Roblero, Ryan and Stewart 1973; cited from earlier work
[4] = Ferreira & Vane 1967; cited from earlier work
[5] = system: isolated guinea pig ileum; assay type: cell-based
Method: (§1) The bradykinin antagonists were assayed on isolated rat uterus in natural or induced estrus and on guinea pig ileum, according to the commonly accepted assay methods for bradykinin and related kinins as described by Trautschold (Handbook of Expt. Pharmacol. Vol. 25, Springer Verlag, pp 53-55, 1970) for inhibition of the myotropic activity of bradykinin. The inhibition potencies, as determined according to the commonly accepted manner described by Schild for antagonists of biologically active compounds (Br. J. Pharmacol. 2:189, 1947), are determined on isolated rat uterus (RUT) and isolated guinea pig ileum (GPI). In the assays, a dose-response curve is determined for the reference substance bradykinin. The dose of bradykinin which produced a half maximal contraction of tissue is the ED50 dose. An amount of bradykinin equivalent to twice the ED50 dose is administered to the tissue 30 seconds after the start of incubation of the tissue with a dose of antagonist. Doses of antagonist are increased in this protocol until pre-incubation with a dose of antagonist reduces the contraction in response to the double ED50 dose of bradykinin to response of a single ED50 dose of bradykinin. The pA2 value represents the negative logarithm of the molar concentration of antagonist necessary to reduce the response of a double ED50 dose of bradykinin to that of an ED50 dose. One unit of pA2 value represents an order of magnitude change in potency. For comparison, the negative log of the dose of BK, the dose which causes half maximal contraction of the tissues, is commonly known as the pD2 value. The pD2 value for bradykinin is 7.9 on the rat uterus and 7.4 on the guinea pig ileum.
(§2) In each case, as shown, the BK-related antagonists inhibited contractions produced by BK-related agonists, but had no effect on the non-kinin myotropic peptide substances. The inhibition potencies are listed as pA2 values as described above.

isolated rat uterus = assay type: cell-based
Method: as §1

guinea pig ileum = assay type: cell-based
Method: as §1, §2

Compound: N=C(N)NCCC[C@H](NC(=O)[C@H](Cc1cccs1)NC(=O)[C@@H]1CCCN1C(=O)[C@H](CO)NC(=O)[C@H](Cc1cccs1)NC(=O)CNC(=O)[C@@H]1CCCN1C(=O)[C@@H]1CCCN1C(=O)[C@H](CCCNC(=N)N)NC(=O)[C@H](CCCCN)NC(=O)[C@@H](N)CCCCN)C(=O)O [Lys--Lys--Thi^5,8 --BK] (H-KKRPPG[2Thi]SP[2Thi]R-OH)
% DESTRUCTION (kininases [2]): 0%

Compound: RPPGFSPFR [Bradykinin (BK), Arg-Pro-Pro-Gly-Phe-Ser-Pro-Phe-Arg]
% DESTRUCTION (kininases [2]): 98%
destruction on a single passage through the pulmonary circulation (kininases [3]): 98-99%
half life in the systemic circulation [4]: less than 30 seconds
pD2 value (negative log of dose causing half maximal contraction) ([5]; guinea pig ileum): 7.4
pD2 value (negative log of dose causing half maximal contraction) (isolated rat uterus; rat uterus): 7.9

Compound: N=C(N)NCCC[C@@H](N)C(=O)N[C@@H](CCCNC(=N)N)C(=O)N1CCC[C@H]1C(=O)N1CCC[C@H]1C(=O)NCC(=O)N[C@@H](Cc1ccccc1)C(=O)N[C@@H](CO)C(=O)N[C@H](Cc1ccccc1)C(=O)N[C@@H](Cc1ccccc1)C(=O)N[C@@H](CCCNC(=N)N)C(=O)O [Example 10, DArg-Arg-Pro-Pro-Gly-Phe-Ser-DPhe-Phe-Arg]
GUINEA PIG ILEUM KAL (pA2) (guinea pig ileum; agonist kallidin (Lys-BK)): 6.0
GUINEA PIG ILEUM MK--BK (pA2) (guinea pig ileum; agonist methionyl-lysyl-BK): 6.3
GPI pA2 [5]: 5.0
GUINEA PIG ILEUM BK (pA2) [5]: 5.6
RUT AG = agonist potency relative to BK = 100 (isolated rat uterus): 0.1%

Compound: N=C(N)NCCC[C@H](NC(=O)[C@H](Cc1ccccc1)NC(=O)[C@@H](Cc1ccccc1)NC(=O)[C@H](CO)NC(=O)[C@H](Cc1ccccc1)NC(=O)CNC(=O)[C@@H]1CCCN1C(=O)[C@@H]1CCCN1C(=O)[C@@H](N)CCCNC(=N)N)C(=O)O [Example 1, Arg-Pro-Pro-Gly-Phe-Ser-DPhe-Phe-Arg] (H-RPPGFS[dF]FR-OH)
GUINEA PIG ILEUM KAL (pA2) (guinea pig ileum): 5.6
GUINEA PIG ILEUM MK--BK (pA2) (guinea pig ileum): 6.0
GUINEA PIG ILEUM BK (pA2) [5]: 5.0
RUT AG = agonist potency relative to BK = 100 (isolated rat uterus): 1%

Compound: N=C(N)NCCC[C@H](NC(=O)[C@H](Cc1cccs1)NC(=O)[C@@H]1CCCN1C(=O)[C@H](CO)NC(=O)[C@H](Cc1cccs1)NC(=O)CNC(=O)[C@@H]1CCCN1C(=O)[C@@H]1CCCN1C(=O)[C@@H](N)CCCNC(=N)N)C(=O)O [Thi^5,8 --BK] (H-RPPG[2Thi]SP[2Thi]R-OH)
% DESTRUCTION (kininases [2]): 95%

Compound: N=C(N)NCCC[C@@H](N)C(=O)N[C@@H](CCCNC(=N)N)C(=O)N1CCC[C@H]1C(=O)N1CCC[C@H]1C(=O)NCC(=O)N[C@@H](Cc1cccs1)C(=O)N[C@@H](CO)C(=O)N[C@H](Cc1ccccc1)C(=O)N[C@@H](Cc1cccs1)C(=O)N[C@@H](CCCNC(=N)N)C(=O)O [Example 15, DArg-Arg-Pro-Pro-Gly-Thi-Ser-DPhe-Thi-Arg] (H-[dR]RPPG[2Thi]S[dF][2Thi]R-OH)
GUINEA PIG ILEUM KAL (pA2) (guinea pig ileum): 6.7
GUINEA PIG ILEUM MK--BK (pA2) (guinea pig ileum): 6.4
GUINEA PIG ILEUM BK (pA2) [5]: 6.1
RUT pA2 (isolated rat uterus): 5.2
pA2/RUT (isolated rat uterus): 5.5

Now from value to compound:

% DESTRUCTION (kininases [1]): 89%
Compound: N=C(N)NCCC[C@H](NC(=O)[C@H](Cc1ccccc1)NC(=O)[C@@H]1CCCN1C(=O)[C@H](CO)NC(=O)[C@H](Cc1ccccc1)NC(=O)CNC(=O)[C@@H]1CCCN1C(=O)[C@@H]1CCCN1C(=O)[C@H](CCCNC(=N)N)NC(=O)[C@H](N)CCCCN)C(=O)O [DLys--BK]

% DESTRUCTION (kininases [1]): 92%
Compound: N=C(N)NCCC[C@@H](N)C(=O)N[C@@H](CCCNC(=N)N)C(=O)N1CCC[C@H]1C(=O)N1CCC[C@H]1C(=O)NCC(=O)N[C@@H](Cc1ccccc1)C(=O)N[C@@H](CO)C(=O)N1CCC[C@H]1C(=O)N[C@@H](Cc1ccccc1)C(=O)N[C@@H](CCCNC(=N)N)C(=O)O [DArg--BK] (H-[dR]RPPGFSPFR-OH)

% DESTRUCTION (kininases [1]): 95%
Compound: NCCCC[C@H](N)C(=O)N[C@@H](CCCN=C(N)N)C(=O)N1CCC[C@H]1C(=O)N1CCC[C@H]1C(=O)NCC(=O)N[C@@H](Cc1ccccc1)C(=O)N[C@@H](CO)C(=O)N1CCC[C@H]1C(=O)N[C@@H](Cc1ccccc1)C(=O)N[C@@H](CCCN=C(N)N)C(=O)O [Lys--BK]

% DESTRUCTION (kininases [1]): 0%
Compound: N=C(N)NCCC[C@H](NC(=O)[C@H](Cc1ccccc1)NC(=O)[C@@H]1CCCN1C(=O)[C@H](CO)NC(=O)[C@H](Cc1ccccc1)NC(=O)CNC(=O)[C@@H]1CCCN1C(=O)[C@@H]1CCCN1C(=O)[C@H](CCCNC(=N)N)NC(=O)[C@H](CCCCN)NC(=O)[C@@H](N)CCCCN)C(=O)O [Lys--Lys--BK]
